Experimental data taken from the NIST ThermoML archive (doi:10.1021/je900259b).
Numbers after ± are expanded uncertainties.

Assays:
[1] = Liquid; for mass density: 298.15 K, 101.33 kPa, Vibrating tube method; for vapor or sublimation pressure: Closed cell (Static) method; for Normal boiling temperature: Ebulliometric method (Recirculating still)
[2] = refractive index (Na D-line) (dimensionless); conditions: 298.15 K; 101.33 kPa; Liquid; Standard Abbe refractometry

SMILES: COCCO [2-methoxyethan-1-ol]
- mass density [1]: 960.02 ± 0.06 kg/m3
- vapor or sublimation pressure ([1]; 345.94 K): 14.98 ± 0.2 kPa
- vapor or sublimation pressure ([1]; 349.54 K): 17.51 ± 0.2 kPa
- vapor or sublimation pressure ([1]; 352.72 K): 20.02 ± 0.2 kPa
- vapor or sublimation pressure ([1]; 355.49 K): 22.45 ± 0.2 kPa
- vapor or sublimation pressure ([1]; 358.12 K): 25.02 ± 0.2 kPa
- vapor or sublimation pressure ([1]; 360.51 K): 27.53 ± 0.21 kPa
- vapor or sublimation pressure ([1]; 362.72 K): 29.98 ± 0.21 kPa
- vapor or sublimation pressure ([1]; 364.76 K): 32.52 ± 0.21 kPa
- vapor or sublimation pressure ([1]; 366.62 K): 34.91 ± 0.21 kPa
- vapor or sublimation pressure ([1]; 368.51 K): 37.49 ± 0.21 kPa
- vapor or sublimation pressure ([1]; 370.14 K): 39.92 ± 0.21 kPa
- vapor or sublimation pressure ([1]; 371.85 K): 42.51 ± 0.21 kPa
- vapor or sublimation pressure ([1]; 373.35 K): 44.91 ± 0.21 kPa
- vapor or sublimation pressure ([1]; 374.89 K): 47.49 ± 0.21 kPa
- vapor or sublimation pressure ([1]; 376.28 K): 49.96 ± 0.21 kPa
- vapor or sublimation pressure ([1]; 377.65 K): 52.42 ± 0.22 kPa
- vapor or sublimation pressure ([1]; 378.98 K): 54.96 ± 0.22 kPa
- vapor or sublimation pressure ([1]; 380.23 K): 57.48 ± 0.22 kPa
- vapor or sublimation pressure ([1]; 381.44 K): 59.94 ± 0.22 kPa
- vapor or sublimation pressure ([1]; 382.64 K): 62.46 ± 0.22 kPa
- vapor or sublimation pressure ([1]; 383.74 K): 64.87 ± 0.22 kPa
- vapor or sublimation pressure ([1]; 384.89 K): 67.49 ± 0.23 kPa
- vapor or sublimation pressure ([1]; 385.95 K): 69.92 ± 0.23 kPa
- vapor or sublimation pressure ([1]; 387.02 K): 72.45 ± 0.23 kPa
- vapor or sublimation pressure ([1]; 388.02 K): 74.99 ± 0.23 kPa
- vapor or sublimation pressure ([1]; 388.98 K): 77.41 ± 0.23 kPa
- vapor or sublimation pressure ([1]; 389.94 K): 79.86 ± 0.23 kPa
- vapor or sublimation pressure ([1]; 390.92 K): 82.45 ± 0.24 kPa
- vapor or sublimation pressure ([1]; 391.85 K): 84.96 ± 0.24 kPa
- vapor or sublimation pressure ([1]; 392.74 K): 87.49 ± 0.24 kPa
- vapor or sublimation pressure ([1]; 393.61 K): 89.96 ± 0.24 kPa
- vapor or sublimation pressure ([1]; 394.47 K): 92.48 ± 0.24 kPa
- vapor or sublimation pressure ([1]; 395.32 K): 94.94 ± 0.25 kPa
- vapor or sublimation pressure ([1]; 396.12 K): 97.48 ± 0.25 kPa
- vapor or sublimation pressure ([1]; 396.96 K): 100.03 ± 0.25 kPa
- vapor or sublimation pressure ([1]; 397.37 K): 101.3 ± 0.3 kPa
- refractive index [2]: 1.4006 ± 0.0005

SMILES: C1CCCCC1 [cyclohexane]
- mass density [1]: 773.82 ± 0.13 kg/m3
- Normal boiling temperature [1]: 80.58 ± 0.2 °C
- refractive index [2]: 1.4238 ± 0.0005

SMILES: C1=CCCCC1 [cyclohexene]
- mass density [1]: 805.69 ± 0.14 kg/m3
- Normal boiling temperature [1]: 82.82 ± 0.2 °C
- refractive index [2]: 1.4444 ± 0.0005
